Data on 1 compound can be found in patent US20240115554A1, “METHODS FOR TREATING OBSTRUCTIVE HYPERTROPHIC CARDIOMYOPATHY” (Cytokinetics, Incorporated, priority 2022, published 2024).

Each structure is given as a SMILES string. Entries after “also recorded” stand apart in the source; their conditions may differ.

The test system of data set [1] is patients with symptomatic oHCM. Nature of the data set: Open-label extension: global longitudinal strain (GLS) by echocardiography. The class given is in vivo, human. The settings on record: baseline −13.9%±3.2. As for the experimental part: GLS analysis was performed using a vendor-neutral analysis package (TOMTEC® Imaging Systems).
Data set [2] relates to patients with symptomatic oHCM. Kind of data set: Open-label extension: safety and tolerability. Type of data set: in vivo, human. The note with it: for Patients with TEAE Leading to Dose Reduction / Patients with TEAE Leading to Drug Interruption / Patients with at Least One Related TEAE / Patients with at Least One Severe TEAE / Patients with at Least One TEAE / Patients with at Least One TESAE: open-label extension, preliminary safety. The procedure: An open-label extension clinical trial of aficamten in patients with symptomatic oHCM was initiated.
An open-label extension clinical trial of aficamten in patients with symptomatic oHCM was initiated. The treatment duration is anticipated to be multiple years.
Safety and tolerability are evaluated by (i) patient incidence of adverse events, (ii) patient incidence of serious adverse events, (iii) patient incidence of LVEF <50%.

With `CCc1nc(-c2ccc3c(c2)CC[C@H]3NC(=O)c2cnn(C)c2)no1` [aficamten, (R)—N-(5-(5-ethyl-1,2,4-oxadiazol-3-yl)-2,3-dihydro-1H-inden-1-yl)-1-methyl-1H-pyrazole-4-carboxamide], the GLS in data set [1] (week 12 (n=27)) is −14.3±3.0%. For the same compound, the GLS in data set [1] (week 36-48 (n=27)) was −14.9%. Moreover, the “safety events deemed related to aficamten therapy by investigators” value in data set [2] (BTR/W analysis) is recorded as “no safety events deemed related to aficamten therapy”. In addition, the “LVEF during recurrent alcohol induced atrial fibrillation” value in data set [2] (one patient on 15 mg) was found to be 47%. The “events of LVEF <50% attributed to aficamten” value in data set [2] (open label extension) is recorded as “no events of LVEF <50% attributed to aficamten; also recorded: no patients experienced aficamten related reduction in LVEF <50%; also recorded: no instances of systolic dysfunction (LVEF <50%) attributed to aficamten”. Further, in data set [2] (open label extension, Example 3a), the tolerability result was “well tolerated”. Moreover, in data set [2] (N = 38), the “Patients with TEAE Leading to Dose Reduction” value is “(5%)”, the “Patients with TEAE Leading to Drug Interruption” value is recorded as “(3%)”, the “Patients with at Least One Related TEAE” value is reported as “(21%)” and the “Patients with at Least One Severe TEAE” value is given as “(3%)”. In addition, in data set [2] (N = 38), the “Patients with at Least One TEAE” value is recorded as “(74%)” and the “Patients with at Least One TESAE” value is “(5%)”. In data set [2] (N = 38, number of patients), the “Patients with TEAE Leading to Dose Reduction” value stood at 2, the “Patients with TEAE Leading to Drug Interruption” value is listed as 1, the “Patients with at Least One Related TEAE” value was 8 and the “Patients with at Least One Severe TEAE” value was determined as 1. For the same compound, in data set [2] (N = 38, number of patients), the “Patients with at Least One TEAE” value stood at 28 and the “Patients with at Least One TESAE” value came to 2.
